Measured values: patent US11292791B2 (priority 2017, dated 2022)

Biological target: BRD4 (Homo sapiens (Human), UniProt O60885)
Details: read-out: BRD4 IC50 (μM gmean)

Row | Compound | IC50 [µM]
1 | COC(=O)N1c2ccc3c(nc(C(C)Cn4cc(Cl)cn4)n3C3CCS(=O)(=O)C3)c2CC[C@@H]1C (stereo partly shown) [Example 709] | 1 to 1000
2 | COC(=O)N1c2ccc3c(nc(Cc4ccccc4)n3C3CCN(C)CC3)c2CC[C@@H]1C [Example 257] | 1 to 1000
3 | COC(=O)N1c2ccc3c(nc(Cc4ccccc4)n3[C@H]3CCC[C@H](c4nnn[nH]4)C3)c2CC[C@@H]1C [Example 282, methyl (S)-3-((1S,3S)-3-(1H-tetrazol-5-yl)cyclohexyl)-2-benzyl-7-methyl-3,7,8,9-tetrahydro-6H-imidazo[4,5-f]quinoline-6-carboxylate] | 1 to 1000
4 | COC(=O)N1c2ccc3c(nc(C(CO)c4ccccc4)n3C3CCCC(C(=O)O)C3)c2CC[C@@H]1C (stereo partly shown) [Example 505] | 1 to 1000
5 | COC(=O)N1c2ccc3c(nc(C(=O)Nc4ccccc4)n3[C@@H]3CCC[C@@H](C(=O)O)C3)c2CC[C@@H]1C [Example 948] | 1 to 1000
6 | COC(=O)N1c2ccc3c(nc(S(=O)(=O)Cc4ccccc4)n3[C@H]3CC[C@H](C(=O)O)CC3)c2CC[C@@H]1C [Example 882] | 1 to 1000
7 | COC(=O)N1c2ccc3c(nc(CC(C(=O)O)c4ccc(C(F)F)cc4)n3C3COCC(F)(F)C3)c2CC[C@@H]1C (stereo partly shown) [Example 937] | 1 to 1000
8 | COC(=O)N1c2ccc3c(nc(CCn4nccn4)n3C3CCS(=O)(=O)CC3)c2CC[C@@H]1C [Example 275] | 1 to 1000
9 | COC(=O)N1c2ccc3c(nc(CCc4cccnc4)n3C)c2CC[C@@H]1C [Example 13] | 1 to 1000
10 | COC(=O)N1c2ccc3c(nc(CCn4cccn4)n3CCN3CC[C@@H](NC(C)=O)C3)c2CC[C@@H]1C [Example 309] | 1 to 1000
11 | COC(=O)N1c2ccc3c(nc(Cc4ccc(OC)c(Cl)c4)n3[C@H]3CC[C@H](C(=O)O)CC3)c2CC[C@@H]1C [Example 508] | 1 to 1000
12 | COC(=O)N1c2ccc3c(nc(CCn4ccccc4=O)n3CCN(C)C3CCOCC3)c2CC[C@@H]1C [Example 325] | 1 to 1000
13 | COC(=O)N1c2ccc3c(nc(C[C@@H](C(=O)O)c4ccccc4)n3C)c2CC[C@@H]1C [Example 133, (2R)-3-[(7S)-6-(methoxycarbonyl)-3,7-dimethyl-3H,6H,7H,8H,9H-imidazo[4,5-f]quinolin-2-yl]-2-phenylpropanoic Acid] | 1 to 1000
14 | COC(=O)N1c2ccc3c(nc(CCn4cccn4)n3CC(=O)NCc3cnco3)c2CC[C@@H]1C [Example 342] | 1 to 1000
15 | COC(=O)N1c2ccc3c(nc(CCn4ccccc4=O)n3[C@@H]3CCC[C@@H](C(=O)O)C3)c2CC[C@@H]1C [Example 871] | 1 to 1000
16 | COC(=O)N1c2ccc3c(nc(S(=O)(=O)c4ccccc4)n3[C@@H]3CCC[C@@H](C(=O)O)C3)c2CC[C@@H]1C [Example 813] | 1 to 1000
17 | COC(=O)N1c2ccc3c(nc(CC(C(=O)O)c4ccc(C)c(F)c4)n3C3CCCOC3)c2CC[C@@H]1C (stereo partly shown) [Example 446] | 1 to 1000
18 | COC(=O)N1c2ccc3c(nc(Cn4ccccc4=O)n3[C@H]3CCCOC3)c2CC[C@@H]1C [Example 260] | 1 to 1000
19 | COC(=O)N1c2ccc3c(nc(Cc4ccc(OC)cc4)n3[C@@H]3CCC[C@@H](C(=O)O)C3)c2CC[C@@H]1C [Example 568] | 1 to 1000
20 | COC(=O)N1c2ccc3c(nc(Nc4ccncc4F)n3[C@@H]3CCC[C@@H](C(=O)O)C3)c2CC[C@@H]1C [Example 941] | 1 to 1000
21 | COC(=O)N1c2ccc3c(nc(CCn4ccccc4=O)n3C)c2CC[C@@H]1C [Example 15] | 1 to 1000
22 | COC(=O)N1c2ccc3c(nc(CCn4cc(Cl)cn4)n3[C@@H]3CCC[C@@H](C(=O)O)C3)c2CC[C@@H]1C [Example 628] | 1 to 1000
23 | COC(=O)N1c2ccc3c(nc(CCn4ccccc4=O)n3CCN(C)[C@H]3CCOC3)c2CC[C@@H]1C [Example 326] | 1 to 1000

Row | Compound | IC50 [µM]
24 | COC(=O)N1c2ccc3c(nc(C4(Oc5cnccn5)CC4)n3[C@H]3CC[C@H](C(=O)O)CC3)c2CC[C@@H]1C [Example 823] | 1 to 1000
25 | COC(=O)N1c2ccc3c(nc(CC(C(=O)O)c4ccc(C(F)F)cc4)n3C3COCC(F)(F)C3)c2CC[C@@H]1C (stereo partly shown) [Example 785] | 1 to 1000
26 | COC(=O)N1c2ccc3c(nc(Cc4ccccc4C(=O)O)n3C3CCOCC3)c2CC[C@@H]1C [Example 778] | 1 to 1000
27 | COC(=O)N1c2ccc3c(nc(Cc4ccccc4C(=O)O)n3C3CCCCC3)c2CC[C@@H]1C [Example 555] | 1 to 1000
28 | COC(=O)N1c2ccc3c(nc(CC(C(=O)O)c4ccccc4)n3C3CCCC(OC)C3)c2CC[C@@H]1C (stereo partly shown) [Example 632] | 1 to 1000
29 | COC(=O)N1c2ccc3c(nc(Cc4ccc(OC)c(F)c4F)n3[C@H]3CC[C@H](C(=O)O)CC3)c2CC[C@@H]1C [Example 553] | 1 to 1000
30 | COC(=O)N1c2ccc3c(nc(CC(C(=O)O)c4ccc(C)cc4)n3C3CCCOC3)c2CC[C@@H]1C (stereo partly shown) [Example 539] | 1 to 1000
31 | COC(=O)N1c2ccc3c(nc(CCC4CC4)n3CCN3CCOCC3)c2CC[C@@H]1C [Example 251] | 1 to 1000
32 | COC(=O)N1c2ccc3c(nc(CCc4ccccc4)n3CCN3CCOCC3)c2CC[C@@H]1C [Example 245] | 1 to 1000
33 | COC(=O)N1c2ccc3c(nc(CC(C(=O)O)c4ccc(C)c(F)c4)n3C3CCCOC3)c2CC[C@@H]1C (stereo partly shown) [Example 845] | 1 to 1000
34 | COC(=O)N1c2ccc3c(nc(CCn4cccn4)n3CCN3CCN(C)CC3)c2CC[C@@H]1C [Example 227] | 1 to 1000
35 | COC(=O)N1c2ccc3c(nc(CCc4cccc(OC(C)C)c4)n3C3CC4(CNC4)C3)c2CC[C@@H]1C [Example 101] | 1 to 1000
36 | COC(=O)N1c2ccc3c(nc(Cc4ccc(OC)c(OC)c4)n3[C@@H]3CCC[C@@H](C(=O)O)C3)c2CC[C@@H]1C [Example 641] | 1 to 1000
37 | COC(=O)N1c2ccc3c(nc(Cc4cccc(F)c4)n3[C@@H]3CCC[C@@H](C(=O)O)C3)c2CC[C@@H]1C [Example 601] | 1 to 1000
38 | COC(=O)N1c2ccc3c(nc(C(C)Cc4cnn(C)c4)n3C3CCC(C(=O)O)CC3)c2CC[C@@H]1C (stereo partly shown) [Example 671] | 1 to 1000
39 | COC(=O)N1c2ccc3c(nc(CC(C(=O)O)c4ccc(C)cc4)n3C3COCC(F)(F)C3)c2CC[C@@H]1C (stereo partly shown) [Example 913] | 1 to 1000
40 | COC(=O)N1c2ccc3c(nc(Cc4ccccc4C#N)n3[C@H]3CC[C@H](C(=O)O)CC3)c2CC[C@@H]1C [Example 706] | 1 to 1000
41 | COC(=O)N1c2ccc3c(nc(C(C)(O)c4ccccn4)n3C3CCCC(C(=O)O)C3)c2CC[C@@H]1C (stereo partly shown) [Example 749] | 1 to 1000
42 | COC(=O)N1c2ccc3c(nc(CCn4cccn4)n3CC(=O)NCc3ccn(C)n3)c2CC[C@@H]1C [Example 345] | 1 to 1000
43 | COC(=O)N1c2ccc3c(nc(N(C)c4ccc(C#N)cc4)n3[C@H]3CC[C@H](C(=O)O)CC3)c2CC[C@@H]1C [Example 769] | 1 to 1000
44 | COC(=O)N1c2ccc3c(nc(CCn4cccn4)n3CCN3CCN(C4CC4)CC3)c2CC[C@@H]1C [Example 312] | 1 to 1000
45 | COC(=O)N1c2ccc3c(nc(Cc4ccccc4)n3C[C@H]3CCCNC3)c2CC[C@@H]1C [Example 87] | 1 to 1000
46 | COC(=O)N1c2ccc3c(nc(CCn4cccn4)n3CC(=O)NCc3ncnn3C)c2CC[C@@H]1C [Example 371] | 1 to 1000

Row | Compound | IC50 [µM]
47 | COC(=O)N1c2ccc3c(nc(Nc4ccc(OC)cc4F)n3[C@@H]3CCC[C@@H](C(=O)O)C3)c2CC[C@@H]1C [Example 846] | 1 to 1000
48 | COC(=O)N1c2ccc3c(nc(CCn4ccccc4=O)n3CCNC[C@H]3CCCO3)c2CC[C@@H]1C [Example 319] | 1 to 1000
49 | COC(=O)N1c2ccc3c(nc(CCn4ccccc4=O)n3CC(=O)Nc3ccn[nH]3)c2CC[C@@H]1C [Example 403] | 1 to 1000
50 | COC(=O)N1c2ccc3c(nc(CC(C(=O)O)c4ccc5ccccc5c4)n3C3CCCOC3)c2CC[C@@H]1C (stereo partly shown) [Example 870] | 1 to 1000
51 | COC(=O)N1c2ccc3c(nc(C(C)Cn4ccc(Cl)n4)n3C3CCCC(C(=O)O)C3)c2CC[C@@H]1C (stereo partly shown) [Example 459] | 1 to 1000
52 | COC(=O)N1c2ccc3c(nc(CCn4cccn4)n3CCCS(C)(=O)=O)c2CC[C@@H]1C [Example 270] | 1 to 1000
53 | COC(=O)N1c2ccc3c(nc(Cc4ccccc4)n3[C@H]3C[C@@H](C(=O)O)C3)c2CC[C@@H]1C [Example 20] | 1 to 1000
54 | COC(=O)N1c2ccc3c(nc(CCn4cccn4)n3CC(=O)NCC(=O)N(C)C)c2CC[C@@H]1C [Example 354] | 1 to 1000
55 | COC(=O)N1c2ccc3c(nc(CC4CCC(OC)CC4)n3C3CCC(C(=O)O)CC3)c2CC[C@@H]1C (stereo partly shown) [Example 729] | 1 to 1000
56 | COC(=O)N1c2ccc3c(nc(CCn4cccn4)n3CCNCCN3CCNC3=O)c2CC[C@@H]1C [Example 307] | 1 to 1000
57 | COC(=O)N1c2ccc3c(nc(CCc4ccccc4)n3C3CC4(CNC4)C3)c2CC[C@@H]1C [Example 81] | 1 to 1000
58 | COC(=O)N1c2ccc3c(nc(C(CO)c4ccccc4)n3C3CCCC(C(=O)O)C3)c2CC[C@@H]1C (stereo partly shown) [Example 668] | 1 to 1000
59 | COC(=O)N1c2ccc3c(nc(CC(C(=O)O)c4ccccc4)n3-c3ccc(OC)cc3)c2CC[C@@H]1C (stereo partly shown) [Example 536] | 1 to 1000
60 | COC(=O)N1c2ccc3c(nc(C(C)Cc4cnn(C)c4)n3C3CCCC(C(=O)O)C3)c2CC[C@@H]1C (stereo partly shown) [Example 742] | 1 to 1000
61 | COC(=O)N1c2ccc3c(nc(C(C)Cn4ccc(C)n4)n3C3CCC(C(=O)O)CC3)c2CC[C@@H]1C (stereo partly shown) [Example 526] | 1 to 1000
62 | COC(=O)N1c2ccc3c(nc(C(O)C4CCC(F)(F)CC4)n3C3CCCC(C(=O)O)C3)c2CC[C@@H]1C (stereo partly shown) [Example 699] | 1 to 1000
63 | COC(=O)N1c2ccc3c(nc(Cc4ccccc4)n3[C@H]3CC[C@@H](C#N)CC3)c2CC[C@@H]1C [Example 256] | 1 to 1000
64 | COC(=O)N1c2ccc3c(nc(C(NC(C)=O)c4ccccc4)n3C3CCC(C(=O)O)CC3)c2CC[C@@H]1C (stereo partly shown) [Example 717] | 1 to 1000
65 | COC(=O)N1c2ccc3c(nc(C(C)Cn4ccc(C)n4)n3C3CCCC(C(=O)O)C3)c2CC[C@@H]1C (stereo partly shown) [Example 485] | 1 to 1000
66 | COC(=O)N1c2ccc3c(nc(Nc4cc(C)nn4C)n3[C@@H]3CCC[C@@H](C(=O)O)C3)c2CC[C@@H]1C [Example 916] | 1 to 1000
67 | COC(=O)N1c2ccc3c(nc(CC(C(=O)O)c4ccc(F)c(F)c4)n3C3CCCC3)c2CC[C@@H]1C (stereo partly shown) [Example 751] | 1 to 1000
